Test results taken from US20260242359A1, “IRHOM2 INHIBITORS AND USES THEREOF” (NEW YORK SOCIETY FOR THE RELIEF OF THE RUPTURED AND …, priority 2023, published 2026).
pIC50: −log10 of the molar value.

Legend:
Assay type in all cases: cell-based
[1] = test system: TNFα release from LPS-stimulated THP-1 cells (iRhom2/ADAM17-dependent); assay: Primary screen (Example 1b): LPS-stimulated TNFα release from THP-1 cells, HTRF; details: Homo sapiens, overnight pre-incubation, LPS 100 ng/mL, 3 h, normalized against 10 μM Batimastat
Protocol: (§1) Two separate screens to identify novel small molecule inhibitors of iRhom2/ADAM17 activity were developed. […] Therefore, the primary screen for small molecule inhibitors of iRhom2/ADAM17 was a screen for inhibitors that blocked the release of TNFα from LPS-stimulated THP-1 human myeloid cells, a process that depends on iRhom2 and ADAM17. Since the release of TNFα from THP-1 cells can be blocked at many stages of the LPS/TLR4/iRhom2/ADAM17 pathway, a secondary screen was performed for another iRhom2/ADAM17 selective substrate, Kit-ligand 2 (KL-2) (Maretzky T et al. (July 2013), “iRhom2 controls the substrate selectivity of stimulated ADAM17-dependent ectodomain shedding”, PNAS 110(28): 11433-11438) in a different human cell type, human embryonic kidney cells (HEK 293).
THP-1 cells were plated in low volume 384 wells (10,000 cells per well in 12.6 μL RPMI medium) together with inhibitors or 10 μM BB94 and incubated over night. The next day, TNFα shedding was initiated by stimulation of THP-1 cells with 100 ng/mL LPS (1.8 μL of an 800 ng/mL LPS stock) for 3 hrs at 37° C. The extent of released TNFα was detected with the corresponding HTRF antibodies labeled with europium cryptate (donor) and d2 (acceptor). The HTRF signal was generated by proximity of europium cryptate and d2. All detection reagents were purchased from Cisbio. TNFα detection was performed according to the manufacturer's protocol (Product Insert for Cisbio TNFα (h) Kit Part #62HTNFAPEG & 62HTNFAPEH; https://www.cisbio.com/media/asset/c/i/cisbio_dd_pi_62htnfapeg-62htnfapeh.pdf, accessed Sep. 28, 2020).
Low volume 384 well plates were pre-coated with small molecule library compounds for a final concentration of 20 μM in a 15 μL reaction, or 0.75 μL of 200 μM stock of BB94 in 5% DMSO (final concentration 0.25%). 12.6 μL of cell suspension [8E5/mL; 10,000 cells/well; culture RPMI medium] and pre-incubated at 37° C., 5% CO2, over night. The next day, 1.8 μL of an 800 ng/mL LPS stock was added [final concentration 100 ng/mL in 15 μL assay] and the cells were incubated at 37° C., 5% CO2, for 3 h. Subsequently, 3 μL of the HTRF-mix [used at 1:3 dilution of cisbio HTRF human TNF] was added and the plates were incubated for an additional 2 hrs at 25° C. After an incubation at room temperature for 2 h, the HTRF readout was performed. Then data evaluation for normalization against the 10 μM Batimastat control (=100% […]) was applied.

[2] = test system: PMA-stimulated KL2 release from HEK-293 cells (iRhom2/ADAM17 selective substrate); assay: Secondary screen (Example 3b): PMA-stimulated KL2 release from HEK-293 cells, AP readout; details: Homo sapiens, HEK293, HEK-293 cells expressing KL2-AP, PMA 100 ng/mL, 2 h, read-out: Secondary Screen IC50 KitL2
Protocol: as §1
(§2) Expression plasmids for alkaline phosphatase (AP)-fused human KL2 and TGFα had been previously designed and generated through gene synthesis followed by subcloning into the pcDNA3.1(+)/Hygro expression vector. […] Subsequently, DNA amplifications were performed to obtain sufficient amounts of the expression vectors. The quality of DNA and gene sequences were confirmed through restriction digest and Sanger sequencing. In parallel, cell culture of HEK-293 cells was initiated. Master and working cell banks were prepared, scaled up and transfected with the respective constructs by electroporation. During cell culturing, cell density and viability were monitored to ensure optimal conditions for the transfections. After PMA stimulation, AP-coupled KL2 or TGFα were detected by measurement of AP activity in the supernatant.
(§3) After electroporation, cells were further cultured in presence of selection antibiotics, hygromycin B, to generate stably transfected polyclonal cell pools. For both assays, KL2 and TGFα shedding, the respective selected pool turned out to be suitable. Final assay conditions were determined for the selected pools. For all experiments, batimastat (BB94, 10 μM) was used as positive control for full inhibition of KL2 or TGFα shedding.
(§4) The wells of sterile 384-well flat bottom clear plates for KL2-AP assays were coated with 10 μL of 0.1 mg/mL poly-d-lysine for 3-4 hr at 25° C. or overnight at 4° C., then washed 2× with PBS and patted dry. 60 μL of cells (40,000/well) were added to the sterile 384-well plate and incubated in Optimem (with 2% FCS and 1% Pen-strep) overnight at 37° C. (5% CO2). After incubation overnight, 55 μL medium were removed with a BioTek EL406 and 10 μL of prediluted compounds were added to the cells for a final concentration of 20 μM. After incubation for 15 min, 15 μL of PMA (100 ng/mL final conc.) were added. The cells were incubated for 2 h at 37° C. (5% CO2). Then, the plates were centrifuged for 5 min at 1000 rpm and 3 μL of the supernatant was transferred to a fresh 384 well plate and 9 μL of AP Balance Buffer was added per well. 12 μL of pNPP p-nitrophenyl phosphate (final 1 M pNPP) was added. AP reaction was performed for 1 h at 37° C. The reaction was stopped by addition of 12 μL of NaOH (1 M final conc.), the plates were centrifuged to remove air bubbles and the absorbance of pNP was measured at 405 nm.

[3] = test system: PMA-stimulated TGFα release from HEK-293 cells (substrate of iRhom1/ADAM17 and iRhom2/ADAM17); assay: Counter screen (Example 4b): PMA-stimulated TGFα release from HEK-293 cells, AP readout; details: Homo sapiens, HEK293, HEK-293 cells expressing TGFα-AP, PMA 100 ng/mL, 2 h
Protocol: A tertiary counterscreen was also performed to monitor the release of TGFα, which is a substrate of iRhom1/ADAM17 and iRhom2/ADAM17, so its release should not be blocked by an iRhom2-selective inhibitor (Maretzky T et al. (July 2013), “iRhom2 controls the substrate selectivity of stimulated ADAM117-dependent ectodomain shedding”, PNAS 110(28): 11433-11438; and Li X et al. (May 2015), “iRhoms 1 and 2 are essential upstream regulators of ADAM17-dependent EGFR signaling”, PNAS 112(19): 6080-6085).
as §2, §3
as §4, with “for TGF-AP” for “for KL2-AP”, “cells (20,000/well)” for “cells (40,000/well)”, “and 12” for “and 3”, “well plate.” for “well plate and 9 μL of AP Balance Buffer was added per well.”

CC(=O)Oc1ccccc1Cn1c(C)c(C(=O)NCc2cccs2)sc1=O [Compound 6]
pIC50 [1]: 5.31
pIC50 [2]: < 4.40
pIC50 [3]: < 4.40
